PubChem BioAssay AID330 (DTP/NCI, 2004)
Several values for one entry are separate records, joined by “and”; a condition that tells them apart may be missing. Equal values may be shown once. Inconclusive results and toxic doses are left out. Rule for the calls: active = survival T/C of 150% or more; inactive = T/C below 125% in these data.

Test system: P388 leukemia ip, CD2F1 mice, survival T/C
Test: NCI In Vivo Anticancer Drug Screen. Data for tumor model P388 Leukemia (intraperitoneal) in CD2F1 (CDF1) mice
Settings: endpoint: median survival time, higher = longer survival
Outline: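 Mice carrying the transplanted tumor received test compound or vehicle. Survival was recorded in each group, and the value is the treated-group measurement divided by that of the vehicle-treated control group.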

[1] = dose: 50.0 mg/kg/injection, schedule: Q01DX005 (ip), vehicle: Klucel (hydroxypropylcellulose) (HPC)
[2] = dose: 100.0 mg/kg/injection, schedule: Q01DX005 (ip), vehicle: Klucel (hydroxypropylcellulose) (HPC)
[3] = dose: 200.0 mg/kg/injection, schedule: Q01DX005 (ip), vehicle: Klucel (hydroxypropylcellulose) (HPC)
[4] = dose: 12.5 mg/kg/injection, schedule: Q01DX009 (ip), vehicle: saline with Tween-80
[5] = dose: 25.0 mg/kg/injection, schedule: Q01DX009 (ip), vehicle: saline with Tween-80
[6] = dose: 6.25 mg/kg/injection, schedule: Q01DX009 (ip), vehicle: saline with Tween-80
[7] = dose: 50.0 mg/kg/injection, schedule: Q01DX005 (ip), vehicle: saline with Tween-80
[8] = dose: 100.0 mg/kg/injection, schedule: Q01DX005 (ip), vehicle: saline with Tween-80
[9] = dose: 200.0 mg/kg/injection, schedule: Q01DX005 (ip), vehicle: saline with Tween-80
[10] = dose: 6.25 mg/kg/injection, schedule: Q01DX009 (ip), vehicle: Klucel (hydroxypropylcellulose) (HPC)
[11] = dose: 12.5 mg/kg/injection, schedule: Q01DX009 (ip), vehicle: Klucel (hydroxypropylcellulose) (HPC)
[12] = dose: 50.0 mg/kg/injection, schedule: Q01DX009 (ip), vehicle: saline with Tween-80
[13] = dose: 60.0 mg/kg/injection, schedule: Q01DX005 (ip), vehicle: saline with Tween-80
[14] = dose: 240.0 mg/kg/injection, schedule: Q01DX005 (ip), vehicle: saline with Tween-80

Measured: T/C

CC1=C(c2ccccc2)C(=O)OC1(c1ccccc1)c1ccccc1
inactive: dose: 50.0 mg/kg/injection, schedule: Q01DX001 (ip), vehicle: Klucel (hydroxypropylcellulose) (HPC) 91 % of control | dose: 100.0 mg/kg/injection, schedule: Q01DX001 (ip), vehicle: Klucel (hydroxypropylcellulose) (HPC) 88 % of control | dose: 200.0 mg/kg/injection, schedule: Q01DX001 (ip), vehicle: Klucel (hydroxypropylcellulose) (HPC) 89 % of control

CCCCNC(=O)SCCC(=O)OC
inactive: [1] 100 % of control | [2] 99 % of control | [3] 105 % of control

CCCCCCN(CCCCCC)P(=O)(N1CC1C)N1CC1C (stereo not drawn)
inactive: [4] 122 % of control | dose: 12.5 mg/kg/injection, schedule: Q04DX003 (ip), vehicle: saline 95 % of control | [5] 118 % of control | dose: 25.0 mg/kg/injection, schedule: Q04DX003 (ip), vehicle: saline 95 % of control | dose: 50.0 mg/kg/injection, schedule: Q04DX003 (ip), vehicle: saline 95 % of control

CN(C)C(=S)SCNC(=S)NCSC(=S)N(C)C
inactive: [6] 104 % of control | [4] 110 % of control and 117 % of control | [5] 116 % of control and 121 % of control

CC(/C=C/c1ccc(C)cc1)=N\NC(N)=O
inactive: [7] 103 % of control | [8] 102 % of control | [9] 93 % of control

C=CCSc1nc2ccc(NC(C)=O)cc2s1
inactive: [10] 104 % of control | [11] 108 % of control | dose: 25.0 mg/kg/injection, schedule: Q01DX009 (ip), vehicle: Klucel (hydroxypropylcellulose) (HPC) 94 % of control

O=C(CON1C(=O)CCC1=O)c1ccccc1
inactive: [12] 106 % of control | dose: 100.0 mg/kg/injection, schedule: Q01DX009 (ip), vehicle: saline with Tween-80 112 % of control | dose: 200.0 mg/kg/injection, schedule: Q01DX009 (ip), vehicle: saline with Tween-80 112 % of control

CCOc1ccc2nc(NN=O)sc2c1
inactive: dose: 1.56 mg/kg/injection, schedule: Q01DX009 (ip), vehicle: water 100 % of control | dose: 3.12 mg/kg/injection, schedule: Q01DX009 (ip), vehicle: water 100 % of control and 95 % of control | dose: 6.25 mg/kg/injection, schedule: Q01DX009 (ip), vehicle: water 101 % of control and 98 % of control | dose: 12.5 mg/kg/injection, schedule: Q01DX009 (ip), vehicle: water 100 % of control and 104 % of control | dose: 25.0 mg/kg/injection, schedule: Q01DX009 (ip), vehicle: water 100 % of control and 101 % of control | dose: 50.0 mg/kg/injection, schedule: Q01DX009 (ip), vehicle: water 104 % of control

C=C1C(=O)OC2C3CCC2C1C3 (stereo not drawn)
inactive: dose: 12.5 mg/kg/injection, schedule: Q04DX003 (ip), vehicle: saline with Tween-80 101 % of control | dose: 25.0 mg/kg/injection, schedule: Q04DX003 (ip), vehicle: saline with Tween-80 115 % of control | dose: 50.0 mg/kg/injection, schedule: Q04DX003 (ip), vehicle: saline with Tween-80 100 % of control

C#Cc1cccc(N=Cc2cc([N+](=O)[O-])cc(Br)c2O)c1
inactive: [7] 100 % of control | [8] 105 % of control | [9] 105 % of control

Oc1ccc(-c2csc(Nc3ccccn3)n2)cc1O
inactive: [7] 98 % of control | [8] 106 % of control | [9] 104 % of control

Cn1nnc2c(Cl)nccc21
inactive: dose: 100.0 mg/kg/injection, schedule: Q04DX002 (ip), vehicle: saline 105 % of control | dose: 200.0 mg/kg/injection, schedule: Q04DX002 (ip), vehicle: saline 100 % of control | dose: 400.0 mg/kg/injection, schedule: Q04DX002 (ip), vehicle: saline 102 % of control

Nc1nc(N)nc(-c2cccnc2)n1
inactive: dose: 100.0 mg/kg/injection, schedule: Q01DX001 (ip), vehicle: saline 109 % of control | dose: 200.0 mg/kg/injection, schedule: Q01DX001 (ip), vehicle: saline 118 % of control | dose: 400.0 mg/kg/injection, schedule: Q01DX001 (ip), vehicle: saline 100 % of control

C=C(Br)C(=NC(C)(C)C)Nc1ccc(Cl)cc1
inactive: dose: 6.25 mg/kg/injection, schedule: Q01DX005 (ip), vehicle: Klucel (hydroxypropylcellulose) (HPC) 107 % of control | dose: 12.5 mg/kg/injection, schedule: Q01DX005 (ip), vehicle: Klucel (hydroxypropylcellulose) (HPC) 114 % of control | [1] 98 % of control | [2] 103 % of control | [3] 102 % of control

COc1cc(/C=C/C(=O)CC(=O)/C=C/c2ccc(O)c(OC)c2)ccc1O
inactive: [6] 103 % of control | [4] 100 % of control | [5] 100 % of control | [12] 94 % of control

COc1ccc2sc3cccc(NCCN(C)C)c3c(=O)c2c1
inactive: dose: 12.5 mg/kg/injection, schedule: Q01DX005 (ip), vehicle: saline with Tween-80 112 % of control | dose: 25.0 mg/kg/injection, schedule: Q01DX005 (ip), vehicle: saline with Tween-80 108 % of control | [7] 100 % of control and 95 % of control | [8] 98 % of control and 99 % of control | [9] 106 % of control | dose: 400.0 mg/kg/injection, schedule: Q01DX005 (ip), vehicle: saline with Tween-80 98 % of control

O=C(CSc1nnc(CSc2ccc(Cl)cc2)n1-c1ccccc1)NC(=O)Nc1ccccc1
inactive: dose: 7.5 mg/kg/injection, schedule: Q01DX005 (ip), vehicle: saline with Tween-80 94 % of control | dose: 15.0 mg/kg/injection, schedule: Q01DX005 (ip), vehicle: saline with Tween-80 90 % of control | dose: 30.0 mg/kg/injection, schedule: Q01DX005 (ip), vehicle: saline with Tween-80 86 % of control | [13] 88 % of control | [14] 89 % of control (2×) and 96 % of control

CC1(C)CC(O)(CC2CCC34C(=O)OC(C)(CCC3Br)C24)CCC1Br (stereo not drawn)
inactive: dose: 5.0 mg/kg/injection, schedule: Q01DX009 (ip), vehicle: Klucel (hydroxypropylcellulose) (HPC) 93 % of control | dose: 10.0 mg/kg/injection, schedule: Q01DX009 (ip), vehicle: Klucel (hydroxypropylcellulose) (HPC) 109 % of control | dose: 20.0 mg/kg/injection, schedule: Q01DX009 (ip), vehicle: Klucel (hydroxypropylcellulose) (HPC) 100 % of control

N#CC1(N2CCCCC2)CCCCC1
inactive: dose: 3.13 mg/kg/injection, schedule: Q01DX009 (ip), vehicle: Klucel (hydroxypropylcellulose) (HPC) 106 % of control | [10] 103 % of control | [11] 93 % of control

O=C(O)Cn1/c(=N\N=C\c2ccccc2)sc2ccccc21
inactive: dose: 100.0 mg/kg/injection, schedule: Q01DX001 (ip), vehicle: saline with Tween-80 101 % of control | dose: 200.0 mg/kg/injection, schedule: Q01DX001 (ip), vehicle: saline with Tween-80 91 % of control | dose: 400.0 mg/kg/injection, schedule: Q01DX001 (ip), vehicle: saline with Tween-80 93 % of control

CN(C)c1ccc(C2=C(c3ccccc3)C(=O)C3(c4ccccc4)CC23c2ccc(N(C)C)cc2)cc1 (stereo not drawn)
inactive: dose: 50.0 mg/kg/injection, schedule: Q01DX005 (ip), vehicle: Klucel + Tween-80 92 % of control | dose: 100.0 mg/kg/injection, schedule: Q01DX005 (ip), vehicle: Klucel + Tween-80 90 % of control | dose: 200.0 mg/kg/injection, schedule: Q01DX005 (ip), vehicle: Klucel + Tween-80 90 % of control

CC1=C/C(=N/OS(=O)(=O)c2ccc(C)cc2)CC(C)(C)C1
inactive: [7] 101 % of control | [8] 92 % of control | [9] 117 % of control

c1ccc(-c2n[nH]c(-c3[nH]nc(-c4ccccc4)c3-c3ccccc3)c2-c2ccccc2)cc1
inactive: [13] 100 % of control | dose: 120.0 mg/kg/injection, schedule: Q01DX005 (ip), vehicle: saline with Tween-80 103 % of control | [14] 101 % of control

CCC/C(=N\NC(N)=Nc1ccc(Cl)cc1)c1ccc(Cl)cc1
inactive: dose: 25.0 mg/kg/injection, schedule: Q04DX002 (ip), vehicle: saline with Tween-80 99 % of control | dose: 50.0 mg/kg/injection, schedule: Q04DX002 (ip), vehicle: saline with Tween-80 100 % of control | dose: 100.0 mg/kg/injection, schedule: Q04DX002 (ip), vehicle: saline with Tween-80 104 % of control

CC(C)CCC(C)C1CCC2C3CC([N+](=O)[O-])=C4CC(OC(=O)c5ccccc5)CCC4(C)C3CCC12C (stereo not drawn)
inactive: dose: 100.0 mg/kg/injection, schedule: Q04DX003 (ip), vehicle: saline with Tween-80 90 % of control | dose: 200.0 mg/kg/injection, schedule: Q04DX003 (ip), vehicle: saline with Tween-80 90 % of control | dose: 400.0 mg/kg/injection, schedule: Q04DX003 (ip), vehicle: saline with Tween-80 90 % of control
